For the first assay, the system named is MOLT-4. The assay is described as follows: Cell viability assay (tetrazolium-based MTS) in MOLT4 cells. The conditions noted are these: Homo sapiens, MOLT-4, MOLT4 acute lymphoblastic leukemia cells, 48 h incubation. On the procedure:
Cancer cells from acute lymphoblastic leukemia (MOLT4) were incubated with increasing concentrations of compounds of Examples 1-9 for 48 h. Cell viability was measured by tetrazolium-based MTS assay. 5×10^4 to 1×10^5 suspension cells or 3×10^3 to 5×10^3 adherent cells were seeded and treated in 96-well plates for 48 h. The EC50 values of individual agents were calculated with GraphPad Prism.
The EC50 is the midpoint of the concentration-response curve. For the compound `Cc1c(-c2ccc(N3CCc4cccc(C(=O)Nc5nc6ccccc6s5)c4C3)nc2C(=O)O)cnn1CC12CC3CC(CC(C3)C1)C2` [A1331852, reference compound], the concentration giving a half-maximal response (EC50) was less than 10 nM.
Still for that read-out and setting: under `Cc1c(-c2ccc(N3CCc4cccc(C(=O)Nc5nc6ccccc6s5)c4C3)nc2C(=O)NS(=O)(=O)CCCn2cc(COCCOCCNc3cccc4c3C(=O)N(C3CCC(=O)NC3=O)C4=O)nn2)cnn1CC12CC3CC(CC(C3)C1)C2` (centres unmarked) [degrader #1, 2-(5-(1-(adamantan-1-ylmethyl)-5-methyl-1H-pyrazol-4-yl)-6-(((3-(4-((2-(2-((2-(2,6-dioxopiperidin-3-yl)-1,3-dioxoisoindolin-4-yl)amino)ethoxy)ethoxy)methyl)-1H-1,2,3-triazol-1-yl)propyl)sulfonyl)carbamoyl)pyridin-2-yl)-N-(benzo[d]thiazol-2-yl)-1,2,3,4-tetrahydroisoquinoline-8-carboxamide] stands 10 to 100 nM; under `Cc1ncsc1-c1ccc([C@H](C)NC(=O)[C@@H]2C[C@@H](O)CN2C(=O)[C@@H](NC(=O)CCCCCCCCCCS(=O)(=O)NC(=O)c2nc(N3CCc4cccc(C(=O)Nc5nc6ccccc6s5)c4C3)ccc2-c2cnn(CC34CC5CC(CC(C5)C3)C4)c2C)C(C)(C)C)cc1` [degrader #16, 2-(5-(1-(adamantan-1-ylmethyl)-5-methyl-1H-pyrazol-4-yl)-6-(((11-(((S)-1-((2S,4R)-4-hydroxy-2-(((S)-1-(4-(4-methylthiazol-5-yl)phenyl)ethyl)carbamoyl)pyrrolidin-1-yl)-3,3-dimethyl-1-oxobutan-2-yl)amino)-11-oxoundecyl)sulfonyl)carbamoyl)pyridin-2-yl)-N-(benzo[d]thiazol-2-yl)-1,2,3,4-tetrahydroisoquinoline-8-carboxamide], 10 to 100 nM.
Turning to `Cc1c(-c2ccc(N3CCc4cccc(C(=O)Nc5nc6ccccc6s5)c4C3)nc2C(=O)NCCCCCCCCNc2cccc3c2C(=O)N(C2CCC(=O)NC2=O)C3=O)cnn1CC12CC3CC(CC(C3)C1)C2` (centres unmarked) [degrader #5, 2-(5-(1-(adamantan-1-ylmethyl)-5-methyl-1H-pyrazol-4-yl)-6-((8-((2-(2,6-dioxopiperidin-3-yl)-1,3-dioxoisoindolin-4-yl)amino)octyl)carbamoyl)pyridin-2-yl)-N-(benzo[d]thiazol-2-yl)-1,2,3,4-tetrahydroisoquinoline-8-carboxamide], the concentration for a half-maximal effect (EC50) was 100 to 1000 nM.
`Cc1c(-c2ccc(N3CCc4cccc(C(=O)Nc5nc6ccccc6s5)c4C3)nc2C(=O)NCCCCNc2cccc3c2C(=O)N(C2CCC(=O)NC2=O)C3=O)cnn1CC12CC3CC(CC(C3)C1)C2` (centres unmarked) [degrader #3, 2-(5-(1-(adamantan-1-ylmethyl)-5-methyl-1H-pyrazol-4-yl)-6-((4-((2-(2,6-dioxopiperidin-3-yl)-1,3-dioxoisoindolin-4-yl)amino)butyl)carbamoyl)pyridin-2-yl)-N-(benzo[d]thiazol-2-yl)-1,2,3,4-tetrahydroisoquinoline-8-carboxamide]: the EC50 fell in the range of 100 to 1000 nM.
Still for that read-out and setting: under `Cc1c(-c2ccc(N3CCc4cccc(C(=O)Nc5nc6ccccc6s5)c4C3)nc2C(=O)NCCOCCOCCNc2cccc3c2C(=O)N(C2CCC(=O)NC2=O)C3=O)cnn1CC12CC3CC(CC(C3)C1)C2` (centres unmarked) [degrader #7, 2-(5-(1-(adamantan-1-ylmethyl)-5-methyl-1H-pyrazol-4-yl)-6-((2-(2-(2-((2-(2,6-dioxopiperidin-3-yl)-1,3-dioxoisoindolin-4-yl)amino)ethoxy)ethoxy)ethyl)carbamoyl)pyridin-2-yl)-N-(benzo[d]thiazol-2-yl)-1,2,3,4-tetrahydroisoquinoline-8-carboxamide] stands 10 to 100 nM; under `Cc1ncsc1-c1ccc([C@H](C)NC(=O)[C@@H]2C[C@@H](O)CN2C(=O)[C@@H](NC(=O)CCCCCCCS(=O)(=O)NC(=O)c2nc(N3CCc4cccc(C(=O)Nc5nc6ccccc6s5)c4C3)ccc2-c2cnn(CC34CC5CC(CC(C5)C3)C4)c2C)C(C)(C)C)cc1` [degrader #13, 2-(5-(1-(adamantan-1-ylmethyl)-5-methyl-1H-pyrazol-4-yl)-6-(((8-(((S)-1-((2S,4R)-4-hydroxy-2-(((S)-1-(4-(4-methylthiazol-5-yl)phenyl)ethyl)carbamoyl)pyrrolidin-1-yl)-3,3-dimethyl-1-oxobutan-2-yl)amino)-8-oxooctyl)sulfonyl)carbamoyl)pyridin-2-yl)-N-(benzo[d]thiazol-2-yl)-1,2,3,4-tetrahydroisoquinoline-8-carboxamide], less than 10 nM; under `Cc1ncsc1-c1ccc([C@H](C)NC(=O)[C@@H]2C[C@@H](O)CN2C(=O)[C@@H](NC(=O)CCCCCS(=O)(=O)NC(=O)c2nc(N3CCc4cccc(C(=O)Nc5nc6ccccc6s5)c4C3)ccc2-c2cnn(CC34CC5CC(CC(C5)C3)C4)c2C)C(C)(C)C)cc1` [degrader #11, 2-(5-(1-(adamantan-1-ylmethyl)-5-methyl-1H-pyrazol-4-yl)-6-(((6-(((S)-1-((2S,4R)-4-hydroxy-2-(((S)-1-(4-(4-methylthiazol-5-yl)phenyl)ethyl)carbamoyl)pyrrolidin-1-yl)-3,3-dimethyl-1-oxobutan-2-yl)amino)-6-oxohexyl)sulfonyl)carbamoyl)pyridin-2-yl)-N-(benzo[d]thiazol-2-yl)-1,2,3,4-tetrahydroisoquinoline-8-carboxamide], less than 10 nM.
In turn, `Cc1c(-c2ccc(N3CCc4cccc(C(=O)Nc5nc6ccccc6s5)c4C3)nc2C(=O)NS(=O)(=O)CCCn2cc(COCCOCCNc3cccc4c3C(=O)N(C3CCC(=O)NC3=O)C4=O)nn2)cc(C#N)n1CC12CC3CC(CC(C3)C1)C2` (centres unmarked) [degrader #2, 2-(5-(1-(adamantan-1-ylmethyl)-5-cyano-2-methyl-1H-pyrrol-3-yl)-6-(((3-(4-((2-(2-((2-(2,6-dioxopiperidin-3-yl)-1,3-dioxoisoindolin-4-yl)amino)ethoxy)ethoxy)methyl)-1H-1,2,3-triazol-1-yl)propyl)sulfonyl)carbamoyl)pyridin-2-yl)-N-(benzo[d]thiazol-2-yl)-1,2,3,4-tetrahydroisoquinoline-8-carboxamide] gave an EC50 of 10 to 100 nM.
Consider `Cc1ncsc1-c1ccc([C@H](C)NC(=O)[C@@H]2C[C@@H](O)CN2C(=O)[C@@H](NC(=O)CCCCCCCNC(=O)c2nc(N3CCc4cccc(C(=O)Nc5nc6ccccc6s5)c4C3)ccc2-c2cnn(CC34CC5CC(CC(C5)C3)C4)c2C)C(C)(C)C)cc1` [degrader #19, 2-(5-(1-(adamantan-1-ylmethyl)-5-methyl-1H-pyrazol-4-yl)-6-((8-(((S)-1-((2S,4R)-4-hydroxy-2-(((S)-1-(4-(4-methylthiazol-5-yl)phenyl)ethyl)carbamoyl)pyrrolidin-1-yl)-3,3-dimethyl-1-oxobutan-2-yl)amino)-8-oxooctyl)carbamoyl)pyridin-2-yl)-N-(benzo[d]thiazol-2-yl)-1,2,3,4-tetrahydroisoquinoline-8-carboxamide], for which the EC50 is 10 to 100 nM.

Staying with this assay, now noted: MOLT4 acute lymphoblastic leukemia cells, 48 h incubation.
The compound `Cc1ncsc1-c1ccc([C@H](C)NC(=O)[C@@H]2C[C@@H](O)CN2C(=O)[C@@H](NC(=O)CCCCCCS(=O)(=O)NC(=O)c2nc(N3CCc4cccc(C(=O)Nc5nc6ccccc6s5)c4C3)ccc2-c2cnn(CC34CC5CC(CC(C5)C3)C4)c2C)C(C)(C)C)cc1` [degrader #12, 2-(5-(1-(adamantan-1-ylmethyl)-5-methvl-1H-pyrazol-4-yl)-6-(((7-(((S)-1-((2S,4R)-4-hydroxy-2-(((S)-1-(4-(4-methylthiazol-5-yl)phenyl)ethyl)carbamoyl)pyrrolidin-1-yl)-3,3-dimethyl-1-oxobutan-2-yl)amino)-7-oxoheptyl)sulfonyl)carbamol)pyridin-2-yl)-N-(benzo[d]thiazol-2-yl)-1,2,3,4-tetrahydroisoquinoline-8-carboxamide] returned an EC50 of less than 10 nM.
Turning to `Cc1c(-c2ccc(N3CCc4cccc(C(=O)Nc5nc6ccccc6s5)c4C3)nc2C(=O)O)cnn1CC12CC3CC(C1)CC(C(=O)NCCCCCCCCCCNc1cccc4c1C(=O)N(C1CCC(=O)NC1=O)C4=O)(C3)C2` (centres unmarked) [degrader #37, 6-(8-(benzo[d]thiazol-2-ylcarbamoyl)-3,4-dihydroisoquinolin-2(1H)-yl)-3-(1-(((1r,3r)-3-((10-((2-(2,6-dioxopiperidin-3-yl)-1,3-dioxoisoindolin-4-yl)amino)decyl)carbamoyl)adamantan-1-yl)methyl)-5-methyl-1H-pyrazol-4-yl)picolinic acid], the EC50 was 10 to 100 nM.
`Cc1c(-c2ccc(N3CCc4cccc(C(=O)Nc5nc6ccccc6s5)c4C3)nc2C(=O)NCCOCCOCCOCC#Cc2cccc3c2CN(C2CCC(=O)NC2=O)C3=O)cnn1CC12CC3CC(CC(C3)C1)C2` (centres unmarked) [degrader #28, 2-(5-(1-(adamantan-1-ylmethyl)-5-methyl-1H-pyrazol-4-yl)-6-((2-(2-(2-((3-(2-(2,6-dioxopiperidin-3-yl)-1-oxoisoindolin-4-yl)prop-2-yn-1-yl)oxy)ethoxy)ethoxy)ethyl)carbamoyl)pyridin-2-yl)-N-(benzo[d]thiazol-2-yl)-1,2,3,4-tetrahydroisoguinoline-8-carboxamide]: the EC50 was less than 10 nM.
In turn, `Cc1ncsc1-c1ccc([C@H](C)NC(=O)[C@@H]2C[C@@H](O)CN2C(=O)[C@@H](NC(=O)CCCCCCCCCCCS(=O)(=O)NC(=O)c2nc(N3CCc4cccc(C(=O)Nc5nc6ccccc6s5)c4C3)ccc2-c2cnn(CC34CC5CC(CC(C5)C3)C4)c2C)C(C)(C)C)cc1` [degrader #17, 2-(5-(1-(adamantan-1-ylymethyl)-5-methyl-1H-pyrazol-4-yl)-6-(((12-(((S)-1-((2S,4R)-4-hydroxy-2-(((S)-1-(4-(4-methylthiazol-5-yl)phenyl)ethyl)carbamoyl)pyrrolidin-1-yl)-3,3-dimethyl-1-oxobutan-2-yl)amino)-12-oxododecyl)sulfonyl)carbamoyl)pyridin-2-yl)-N-(benzo[d]thiazol-2-yl)-1,2,3,4-tetrahydroisoquinoline-8-carboxamide] gave a concentration for a half-maximal effect (EC50) of 10 to 100 nM.

For the origin of these results see patent publication US12441722B2, “Therapeutic agents and methods of treatment” (University of Florida Research Foundation, Incorporated, priority 2020, dated 2025).
